Measurements as given in ChEMBL document CHEMBL1155853, “N-(thiazol-2-yl)-2-thiophene carboxamide derivatives as Abl inhibitors identified by a pharmacophore-based database screening of commercially available compounds” (Bioorg Med Chem Lett, 2008).
pKi: −log10 of the molar value.

biological target: Tyrosine-protein kinase ABL1 (Homo sapiens, UniProt P00519); experiment: Inhibition of Abl kinase by cell free assay
Sequence (P00519 whole entry): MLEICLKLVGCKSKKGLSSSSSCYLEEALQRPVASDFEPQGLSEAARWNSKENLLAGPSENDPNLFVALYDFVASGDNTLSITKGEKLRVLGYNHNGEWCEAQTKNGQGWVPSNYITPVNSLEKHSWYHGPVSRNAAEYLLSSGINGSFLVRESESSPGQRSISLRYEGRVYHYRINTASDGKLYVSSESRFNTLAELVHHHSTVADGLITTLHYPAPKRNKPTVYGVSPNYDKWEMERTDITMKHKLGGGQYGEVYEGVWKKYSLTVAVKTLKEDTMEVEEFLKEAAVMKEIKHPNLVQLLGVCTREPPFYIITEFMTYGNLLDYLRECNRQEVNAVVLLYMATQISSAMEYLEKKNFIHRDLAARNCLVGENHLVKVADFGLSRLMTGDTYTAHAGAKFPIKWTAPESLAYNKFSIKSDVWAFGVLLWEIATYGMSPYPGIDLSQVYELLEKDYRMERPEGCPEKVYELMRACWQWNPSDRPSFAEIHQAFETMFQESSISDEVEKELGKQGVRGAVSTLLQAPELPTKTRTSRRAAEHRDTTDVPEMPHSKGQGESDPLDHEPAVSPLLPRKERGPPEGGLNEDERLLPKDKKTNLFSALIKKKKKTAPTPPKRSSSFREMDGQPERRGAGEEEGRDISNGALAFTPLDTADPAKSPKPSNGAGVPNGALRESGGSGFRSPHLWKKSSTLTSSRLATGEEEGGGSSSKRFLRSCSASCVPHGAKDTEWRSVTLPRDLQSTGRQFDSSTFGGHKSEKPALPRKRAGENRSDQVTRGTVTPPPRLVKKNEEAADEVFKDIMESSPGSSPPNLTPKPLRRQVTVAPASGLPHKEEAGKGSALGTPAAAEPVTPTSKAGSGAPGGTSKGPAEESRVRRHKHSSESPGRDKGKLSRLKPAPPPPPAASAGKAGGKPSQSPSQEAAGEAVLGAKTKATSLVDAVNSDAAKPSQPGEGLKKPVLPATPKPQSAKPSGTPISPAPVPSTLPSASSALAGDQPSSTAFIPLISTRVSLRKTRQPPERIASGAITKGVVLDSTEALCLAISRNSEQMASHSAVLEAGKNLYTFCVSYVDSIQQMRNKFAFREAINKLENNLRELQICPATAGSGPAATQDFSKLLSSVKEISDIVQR

SMILES	pKi
Cc1ccc(Cc2cnc(NC(=O)c3cccs3)s2)cc1	6.60
O=C(Nc1ncc(Cc2cc(Cl)ccc2Cl)s1)c1cccs1	7.30
O=C(Nc1ncc(-c2ccc(F)cc2)s1)c1cccs1	5.78
O=C(Nc1ncc(Cc2ccc(Cl)cc2Cl)s1)c1cccs1	5.46
O=C(Nc1ncc(Cc2ccccc2)s1)c1cccs1	7.05
O=C(Nc1ncc(Cc2cc(C(F)(F)F)ccc2Cl)s1)c1cccs1	6.07
O=C(Nc1ncc(Cc2ccc(Cl)cc2)s1)c1cccs1	6.20
COc1ccc(Cc2cnc(NC(=O)c3cccs3)s2)cc1	7.80
O=C(Nc1nnc(Cc2ccccc2)s1)c1cccs1	6.44
O=C(Nc1ncc(Cc2ccc(F)cc2)s1)c1cccs1	6.89
COc1ccc2c(c1)Cc1sc(NC(=O)c3cccs3)nc1-2	7.17
O=C(Nc1ncc(Cc2cccc(C(F)(F)F)c2)s1)c1cccs1	6.87
O=C(Nc1ncc(Cc2ccccc2Cl)s1)c1cccs1	6.61
O=C(Nc1nnc(COc2ccccc2)s1)c1cccs1	6.56
Cc1cccc(Cc2cnc(NC(=O)c3cccs3)s2)c1	7.23
O=C(Nc1ncc(Cc2cccc(Cl)c2)s1)c1cccs1	7.01
O=C(Nc1ncc(Cc2ccccc2F)s1)c1cccs1	6.77
O=C(Nc1ncc(-c2ccc(Cl)cc2)s1)c1cccs1	6.10
